Assay results reported in the NIST ThermoML archive (doi:10.1016/j.fluid.2017.09.019).
Numbers after ± are expanded uncertainties.

Experiment: wn = mass fraction of the nth substance listed
Conditions: 101 kPa, Liquid; for viscosity: Concentric cylinders viscometry; for mass density: Vibrating tube method

CC(O)CN(C)C (stereo not given) [1-(dimethylamino)-2-propanol] + O
Conditions | mass density [kg/m3] | viscosity [mPa·s]
298.15 K, w1 = 0.2 | 988.2 ± 2.4 | 2.407 ± 0.1
298.15 K, w1 = 0.25 | 986.5 ± 2.4 | 2.995 ± 0.1
298.15 K, w1 = 0.3 | 984.4 ± 2.4 | 3.886 ± 0.11
298.15 K, w1 = 0.35 | 979.5 ± 2.4 | 4.735 ± 0.11
298.15 K, w1 = 0.4 | 976.4 ± 2.4 | 5.67 ± 0.11
298.15 K, w1 = 0.45 | 970.3 ± 2.4 | 6.602 ± 0.12
298.15 K, w1 = 0.5 | 966.2 ± 2.4 | 7.632 ± 0.12
298.15 K, w1 = 0.6 | 949.4 ± 2.4 | 8.956 ± 0.13
298.15 K, w1 = 0.7 | 930.9 ± 2.4 | 9.925 ± 0.13
298.15 K, w1 = 0.8 | 908.8 ± 2.4 | 8.482 ± 0.12
298.15 K, w1 = 0.9 | 879.8 ± 2.4 | 5.585 ± 0.11
298.15 K, w1 = 0.95 | 863.9 ± 2.4 | 3.79 ± 0.11
298.15 K, w1 = 0.96 | 858.1 ± 2.4 | 3.282 ± 0.1
298.15 K, w1 = 0.98 | 852.4 ± 2.4 | 2.094 ± 0.1
298.15 K, w1 = 1 | 845.4 ± 2.4 | 1.332 ± 0.1
303.15 K, w1 = 0.2 | 985.7 ± 2.4 | 2.018 ± 0.1
303.15 K, w1 = 0.25 | 983.5 ± 2.4 | 2.51 ± 0.1
303.15 K, w1 = 0.3 | 981 ± 2.4 | 3.097 ± 0.1
303.15 K, w1 = 0.35 | 976.1 ± 2.4 | 3.805 ± 0.11
303.15 K, w1 = 0.4 | 972.1 ± 2.4 | 4.54 ± 0.11
303.15 K, w1 = 0.45 | 966.4 ± 2.4 | 5.187 ± 0.11
303.15 K, w1 = 0.5 | 962.1 ± 2.4 | 5.965 ± 0.12
303.15 K, w1 = 0.6 | 944.6 ± 2.4 | 6.964 ± 0.13
303.15 K, w1 = 0.7 | 925.3 ± 2.4 | 7.654 ± 0.13
303.15 K, w1 = 0.8 | 903.5 ± 2.4 | 6.762 ± 0.13
303.15 K, w1 = 0.9 | 875 ± 2.4 | 4.935 ± 0.11
303.15 K, w1 = 0.95 | 858.9 ± 2.4 | 3.199 ± 0.11
303.15 K, w1 = 0.96 | 853.1 ± 2.4 | 2.783 ± 0.1
303.15 K, w1 = 0.98 | 847.3 ± 2.4 | 1.875 ± 0.1
303.15 K, w1 = 1 | 840.3 ± 2.4 | 1.183 ± 0.1
308.15 K, w1 = 0.2 | 983 ± 2.4 | 1.738 ± 0.1
308.15 K, w1 = 0.25 | 980.6 ± 2.4 | 2.115 ± 0.1
308.15 K, w1 = 0.3 | 977.8 ± 2.4 | 2.559 ± 0.1
308.15 K, w1 = 0.35 | 972.4 ± 2.4 | 3.115 ± 0.1
308.15 K, w1 = 0.4 | 968.3 ± 2.4 | 3.647 ± 0.11
308.15 K, w1 = 0.45 | 961.8 ± 2.4 | 4.156 ± 0.11
308.15 K, w1 = 0.5 | 957.7 ± 2.4 | 4.75 ± 0.11
308.15 K, w1 = 0.6 | 940 ± 2.4 | 5.487 ± 0.12
308.15 K, w1 = 0.7 | 919.8 ± 2.4 | 6.02 ± 0.12
308.15 K, w1 = 0.8 | 899.1 ± 2.4 | 5.106 ± 0.12
308.15 K, w1 = 0.9 | 870.1 ± 2.4 | 3.396 ± 0.11
308.15 K, w1 = 0.95 | 854.1 ± 2.4 | 2.463 ± 0.1
308.15 K, w1 = 0.96 | 848.4 ± 2.4 | 2.211 ± 0.1
308.15 K, w1 = 0.98 | 842.4 ± 2.4 | 1.499 ± 0.1
308.15 K, w1 = 1 | 835.5 ± 2.4 | 1.059 ± 0.1
313.15 K, w1 = 0.2 | 980.4 ± 2.4 | 1.509 ± 0.1
313.15 K, w1 = 0.25 | 977.5 ± 2.4 | 1.803 ± 0.1
313.15 K, w1 = 0.3 | 973.6 ± 2.4 | 2.161 ± 0.1
313.15 K, w1 = 0.35 | 968.4 ± 2.4 | 2.587 ± 0.1
313.15 K, w1 = 0.4 | 964.1 ± 2.4 | 3.016 ± 0.1
313.15 K, w1 = 0.45 | 957.8 ± 2.4 | 3.375 ± 0.11
313.15 K, w1 = 0.5 | 953.4 ± 2.4 | 3.851 ± 0.11
313.15 K, w1 = 0.6 | 935.4 ± 2.4 | 4.387 ± 0.11
313.15 K, w1 = 0.7 | 915.8 ± 2.4 | 4.853 ± 0.11
313.15 K, w1 = 0.8 | 894.1 ± 2.4 | 4.197 ± 0.11
313.15 K, w1 = 0.9 | 865.3 ± 2.4 | 2.909 ± 0.1
313.15 K, w1 = 0.95 | 849.3 ± 2.4 | 2.048 ± 0.1
313.15 K, w1 = 0.96 | 843.6 ± 2.4 | 1.835 ± 0.1
313.15 K, w1 = 0.98 | 837.6 ± 2.4 | 1.322 ± 0.1
313.15 K, w1 = 1 | 830.7 ± 2.4 | 0.955 ± 0.1
318.15 K, w1 = 0.2 | 977.5 ± 2.4 | 1.325 ± 0.1
318.15 K, w1 = 0.25 | 974.3 ± 2.4 | 1.562 ± 0.1
318.15 K, w1 = 0.3 | 969.8 ± 2.4 | 1.852 ± 0.1
318.15 K, w1 = 0.35 | 964.1 ± 2.4 | 2.194 ± 0.1
318.15 K, w1 = 0.4 | 959.9 ± 2.4 | 2.523 ± 0.1
318.15 K, w1 = 0.45 | 953.6 ± 2.4 | 2.808 ± 0.1
318.15 K, w1 = 0.5 | 949 ± 2.4 | 3.178 ± 0.1
318.15 K, w1 = 0.6 | 930.7 ± 2.4 | 3.577 ± 0.11
318.15 K, w1 = 0.7 | 910.9 ± 2.4 | 3.973 ± 0.11
318.15 K, w1 = 0.8 | 889.4 ± 2.4 | 3.577 ± 0.11
318.15 K, w1 = 0.9 | 860.5 ± 2.4 | 2.629 ± 0.1
318.15 K, w1 = 0.95 | 844.4 ± 2.4 | 1.921 ± 0.1
318.15 K, w1 = 0.96 | 838.7 ± 2.4 | 1.735 ± 0.1
318.15 K, w1 = 0.98 | 832.6 ± 2.4 | 1.2 ± 0.1
318.15 K, w1 = 1 | 825.8 ± 2.4 | 0.866 ± 0.1
323.15 K, w1 = 0.2 | 974.2 ± 2.4 | 1.179 ± 0.1
323.15 K, w1 = 0.25 | 971 ± 2.4 | 1.363 ± 0.1
323.15 K, w1 = 0.3 | 966.2 ± 2.4 | 1.598 ± 0.1
323.15 K, w1 = 0.35 | 960.2 ± 2.4 | 1.868 ± 0.1
323.15 K, w1 = 0.4 | 955.5 ± 2.4 | 2.129 ± 0.1
323.15 K, w1 = 0.45 | 949.4 ± 2.4 | 2.36 ± 0.1
323.15 K, w1 = 0.5 | 944.5 ± 2.4 | 2.652 ± 0.1
323.15 K, w1 = 0.6 | 925.9 ± 2.4 | 2.974 ± 0.1
323.15 K, w1 = 0.7 | 906.8 ± 2.4 | 3.301 ± 0.1
323.15 K, w1 = 0.8 | 884.6 ± 2.4 | 2.909 ± 0.1
323.15 K, w1 = 0.9 | 855.9 ± 2.4 | 1.929 ± 0.1
323.15 K, w1 = 0.95 | 839.5 ± 2.4 | 1.357 ± 0.1
323.15 K, w1 = 0.96 | 833.8 ± 2.4 | 1.192 ± 0.1
323.15 K, w1 = 0.98 | 827.7 ± 2.4 | 1.003 ± 0.1
323.15 K, w1 = 1 | 820.9 ± 2.4 | 0.788 ± 0.1
328.15 K, w1 = 0.2 | 971.2 ± 2.4 | 1.05 ± 0.1
328.15 K, w1 = 0.25 | 967.6 ± 2.4 | 1.201 ± 0.1
328.15 K, w1 = 0.3 | 962.4 ± 2.4 | 1.402 ± 0.1
328.15 K, w1 = 0.35 | 955.6 ± 2.4 | 1.62 ± 0.1
328.15 K, w1 = 0.4 | 951.3 ± 2.4 | 1.821 ± 0.1
328.15 K, w1 = 0.45 | 944.2 ± 2.4 | 2.008 ± 0.1
328.15 K, w1 = 0.5 | 940.1 ± 2.4 | 2.239 ± 0.1
328.15 K, w1 = 0.6 | 921.2 ± 2.4 | 2.486 ± 0.1
328.15 K, w1 = 0.7 | 901.7 ± 2.4 | 2.781 ± 0.1
328.15 K, w1 = 0.8 | 880 ± 2.4 | 2.471 ± 0.1
328.15 K, w1 = 0.9 | 850.6 ± 2.4 | 1.824 ± 0.1
328.15 K, w1 = 0.95 | 834.6 ± 2.4 | 1.348 ± 0.1
328.15 K, w1 = 0.96 | 828.8 ± 2.4 | 1.208 ± 0.1
328.15 K, w1 = 0.98 | 822.8 ± 2.4 | 0.983 ± 0.1
328.15 K, w1 = 1 | 816 ± 2.4 | 0.72 ± 0.1
333.15 K, w1 = 0.2 | 967.8 ± 2.4 | 0.934 ± 0.1
333.15 K, w1 = 0.25 | 964.2 ± 2.4 | 1.067 ± 0.1
333.15 K, w1 = 0.3 | 958.4 ± 2.4 | 1.236 ± 0.1
333.15 K, w1 = 0.35 | 950.9 ± 2.4 | 1.483 ± 0.1
333.15 K, w1 = 0.4 | 946.7 ± 2.4 | 1.577 ± 0.1
333.15 K, w1 = 0.45 | 939.2 ± 2.4 | 1.724 ± 0.1
333.15 K, w1 = 0.5 | 936.1 ± 2.4 | 1.911 ± 0.1
333.15 K, w1 = 0.6 | 916 ± 2.4 | 2.106 ± 0.1
333.15 K, w1 = 0.7 | 897.1 ± 2.4 | 2.374 ± 0.1
333.15 K, w1 = 0.8 | 875.3 ± 2.4 | 2.182 ± 0.1
333.15 K, w1 = 0.9 | 845 ± 2.4 | 1.687 ± 0.1
333.15 K, w1 = 0.95 | 830.9 ± 2.4 | 1.236 ± 0.1
333.15 K, w1 = 0.96 | 823.8 ± 2.4 | 1.102 ± 0.1
333.15 K, w1 = 0.98 | 817.9 ± 2.4 | 0.853 ± 0.1
333.15 K, w1 = 1 | 811.1 ± 2.4 | 0.662 ± 0.1
